In the NIST ThermoML archive (doi:10.1021/je3008974):

Settings: Liquid

F/C=C/C(F)(F)F [trans-1,3,3,3-tetrafluoropropene]
Settings	mass density [kg/m3]
285.5 K, 1018.5 kPa, isochoric method	1205.5
286.92 K, 2021.5 kPa, isochoric method	1205.4
288.32 K, 3010.5 kPa, isochoric method	1205.3
289.41 K, 3779.9 kPa, isochoric method	1205.2
291.42 K, 20124 kPa, isochoric method	1254.7
291.45 K, 5221.8 kPa, isochoric method	1205
298.03 K, 1062.5 kPa, isochoric method	1165.6
298.14 K, 9928.4 kPa, isochoric method	1204.5
298.15 K, 2000 kPa, Pycnometric method	1170.52
299.62 K, 2045.7 kPa, isochoric method	1165.5
301.21 K, 3025.5 kPa, isochoric method	1165.3
302.81 K, 4026.8 kPa, isochoric method	1165.2
304.38 K, 4991.3 kPa, isochoric method	1165.1
305.08 K, 14792 kPa, isochoric method	1203.9
312.4 K, 1349.3 kPa, isochoric method	1117.7
312.58 K, 10069 kPa, isochoric method	1164.5
312.58 K, 19938 kPa, isochoric method	1203.3
313.7 K, 2032.5 kPa, isochoric method	1117.6
315.61 K, 3038.9 kPa, isochoric method	1117.5
317.51 K, 4033.2 kPa, isochoric method	1117.4
319.6 K, 5142.9 kPa, isochoric method	1117.2
319.8 K, 24935 kPa, isochoric method	1202.7
320.41 K, 14882 kPa, isochoric method	1163.9
327 K, 29927 kPa, isochoric method	1202.2
328.71 K, 2042.5 kPa, isochoric method	1060.1
328.71 K, 9986.8 kPa, isochoric method	1116.5
328.72 K, 19949 kPa, isochoric method	1163.2
330.83 K, 2963.3 kPa, isochoric method	1060
333.13 K, 3964.2 kPa, isochoric method	1059.8
334.34 K, 34952 kPa, isochoric method	1201.6
335.43 K, 4968.4 kPa, isochoric method	1059.7
336.83 K, 24924 kPa, isochoric method	1162.6
337.81 K, 14797 kPa, isochoric method	1115.9
341.91 K, 40043 kPa, isochoric method	1201
345.09 K, 29935 kPa, isochoric method	1162
346.84 K, 9943.4 kPa, isochoric method	1058.9
347.53 K, 19908 kPa, isochoric method	1115.2
353.15 K, 12717 kPa, isochoric method	1058.5
353.15 K, 22854 kPa, isochoric method	1114.8
353.15 K, 34806 kPa, isochoric method	1161.4

FC(F)(F)I [trifluoroiodomethane]
Settings	mass density [kg/m3]
207.79 K, 10925 kPa, isochoric method	2455.5
210.4 K, 14322 kPa, isochoric method	2455
214.87 K, 20130 kPa, isochoric method	2454.2
214.92 K, 1055.7 kPa, isochoric method	2401.1
215.96 K, 2305 kPa, isochoric method	2400.9
216.71 K, 3175.5 kPa, isochoric method	2400.7
217.73 K, 4381.5 kPa, isochoric method	2400.5
218.37 K, 5116.4 kPa, isochoric method	2400.4
218.48 K, 25008 kPa, isochoric method	2453.5
222.4 K, 29924 kPa, isochoric method	2452.8
222.62 K, 10052 kPa, isochoric method	2399.6
226.21 K, 34684 kPa, isochoric method	2452.1
226.99 K, 15121 kPa, isochoric method	2398.8
229.95 K, 39202 kPa, isochoric method	2451.5
231.25 K, 20002 kPa, isochoric method	2398.1
231.74 K, 1109.5 kPa, isochoric method	2334.8
233.57 K, 2990.1 kPa, isochoric method	2334.5
234.66 K, 4114 kPa, isochoric method	2334.3
235.46 K, 4930.4 kPa, isochoric method	2334.1
235.5 K, 24985 kPa, isochoric method	2397.3
239.91 K, 29944 kPa, isochoric method	2396.6
240.52 K, 10116 kPa, isochoric method	2333.3
244.17 K, 34707 kPa, isochoric method	2395.8
245.45 K, 15114 kPa, isochoric method	2332.4
248.78 K, 39783 kPa, isochoric method	2395.1
250.46 K, 20143 kPa, isochoric method	2331.6
251.97 K, 1975.5 kPa, isochoric method	2256.4
253.21 K, 3063.1 kPa, isochoric method	2256.2
254.16 K, 3884.4 kPa, isochoric method	2256
255.27 K, 4873.4 kPa, isochoric method	2255.8
255.32 K, 25028 kPa, isochoric method	2330.8
260.19 K, 29834 kPa, isochoric method	2330
261.5 K, 10373 kPa, isochoric method	2254.8
265.13 K, 34684 kPa, isochoric method	2329.2
266.41 K, 776 kPa, isochoric method	2188.5
266.75 K, 1052.9 kPa, isochoric method	2188.4
267.06 K, 15109 kPa, isochoric method	2253.2
267.97 K, 1992.8 kPa, isochoric method	2188.2
269.24 K, 2976.2 kPa, isochoric method	2188
270.53 K, 3984.6 kPa, isochoric method	2187.8
270.93 K, 40330 kPa, isochoric method	2328.3
272.12 K, 5216.5 kPa, isochoric method	2187.6
272.85 K, 20116 kPa, isochoric method	2252.3
278.48 K, 25009 kPa, isochoric method	2252.2
278.49 K, 10098 kPa, isochoric method	2186.6
278.5 K, 24979 kPa, isochoric method	2251.5
284.17 K, 29780 kPa, isochoric method	2250.6
284.36 K, 940.5 kPa, isochoric method	2105.8
285.08 K, 15134 kPa, isochoric method	2185.7
285.92 K, 1976.8 kPa, isochoric method	2105.6
287.34 K, 2905.5 kPa, isochoric method	2105.4
288.88 K, 3930.3 kPa, isochoric method	2105.2
290.4 K, 34997 kPa, isochoric method	2249.7
290.43 K, 4950.8 kPa, isochoric method	2104.9
291.69 K, 20129 kPa, isochoric method	2184.7
296.15 K, 39750 kPa, isochoric method	2248.8
297.94 K, 861.4 kPa, isochoric method	2038.1
298.14 K, 10026 kPa, isochoric method	2103.9
298.15 K, 2000 kPa, Pycnometric method	2046.84
298.15 K, 25035 kPa, isochoric method	2183.8
300.01 K, 2068.2 kPa, isochoric method	2037.9
301.75 K, 3070.1 kPa, isochoric method	2037.6
303.44 K, 4061.6 kPa, isochoric method	2037.4
304.54 K, 29729 kPa, isochoric method	2182.8
305.17 K, 5069.5 kPa, isochoric method	2037.2
305.56 K, 14805 kPa, isochoric method	2102.8
311.69 K, 35046 kPa, isochoric method	2181.8
313.22 K, 982.5 kPa, isochoric method	1957.5
313.53 K, 19969 kPa, isochoric method	2101.8
313.58 K, 9932.8 kPa, isochoric method	2036.1
315.12 K, 1958.3 kPa, isochoric method	1957.3
317.18 K, 2990.2 kPa, isochoric method	1957
318.54 K, 40060 kPa, isochoric method	2180.9
319.17 K, 3976.2 kPa, isochoric method	1956.8
321.22 K, 5005.2 kPa, isochoric method	1956.5
321.68 K, 25300 kPa, isochoric method	2100.7
322.38 K, 14998 kPa, isochoric method	2034.9
328.99 K, 1994.4 kPa, isochoric method	1875.8
329.49 K, 30240 kPa, isochoric method	2099.6
331.3 K, 2985.8 kPa, isochoric method	1875.6
331.3 K, 10058 kPa, isochoric method	1955.3
331.31 K, 20061 kPa, isochoric method	2033.8
333.64 K, 3972.3 kPa, isochoric method	1875.3
336 K, 4985.7 kPa, isochoric method	1875
337.32 K, 35169 kPa, isochoric method	2098.6
340.45 K, 25264 kPa, isochoric method	2032.6
341.64 K, 15161 kPa, isochoric method	1954
343.84 K, 39291 kPa, isochoric method	2097.7
353.14 K, 20828 kPa, isochoric method	1952.6
353.15 K, 12322 kPa, isochoric method	1873
353.15 K, 32431 kPa, isochoric method	2031
